Literature values, collected in US11103503B2, “Pharmaceutical compositions of Lurasidone” (SLAYBACK PHARMA LLC, priority 2019, dated 2021).

What was measured:
[1] = fed state

- administered dose absorbed [1]: 9-19%
- solubility in water: very slightly soluble
SMILES: O=C1[C@@H]2[C@H]3CC[C@H](C3)[C@@H]2C(=O)N1C[C@@H]1CCCC[C@H]1CN1CCN(c2nsc3ccccc23)CC1 [Lurasidone, N-4-4-(1,2-benzisothiazol-3-yl)-1-piperazinyl-(2R,3R)-2,3-tetramethylene-butyl-(1R,2S,3R,4'S)-2,3-bicyclo[2.2.1]heptanedicarboxyimide]
